Test results as given in patent US20240261250A1 (priority 2020, published 2024).

How the values were obtained:
SH-SY5Y cells [1] = test system: SH-SY5Y cells
SH-SY5Y cells [2] = assay type: cell-based
SH-SY5Y cells [3] = assay type: cell-based; remark: listed apart in the source
SH-SY5Y cells [4] = assay type: cell-based; remark: listed apart in the source

O[C@H]1[C@H](O)[C@@H](O)[C@@H]2O[C@@H]2[C@@H]1O (racemic) [CBE, Conduritol B Epoxide]
cell viability (SH-SY5Y cells [1]): significantly inhibited | concentration of GlcCer of various side chains in cells (SH-SY5Y cells [2]): much higher | immunofluorescence intensity of Lyso-tracker (SH-SY5Y cells [3]): increased significantly | number of Lyso-tracker labeled positive cells (SH-SY5Y cells [3]): significantly increased

COc1ncc(-c2ccc3nc(N)n(-c4ccc(N5CCOCC5)cc4)c3c2)cc1S(=O)(=O)Nc1ccccc1F [A1, 5-(2-amino-1-(4-(4-morpholinyl)phenyl)-1H-benzimidazol-6-yl)-N-(2-fluorophenyl)-2-methoxy-3-pyridinesulfonamide]
Lyso-tracker labeled positive cells (SH-SY5Y cells [3]): fewer Lyso-tracker labeled positive cells

CO/C1=C\C(C)=C\[C@@H](C)[C@@H](O)[C@@H](C)C/C(C)=C/C=C/[C@H](OC)[C@@H]([C@@H](C)[C@@H](O)[C@H](C)[C@@]2(O)C[C@@H](O)[C@H](C)[C@@H](C(C)C)O2)OC1=O [Baf-A1, Bafilomycin A1]
cell viability (SH-SY5Y cells [1]): not significantly different | effect on the protection by PAO (cell viability) (SH-SY5Y cells [1]): decreased the protection effect of PAO

CCN(CC)CCO[C@H]1CC[C@@]2(C)C(=CC[C@@H]3[C@@H]2CC[C@]2(C)C(=O)CC[C@@H]32)C1 [U18666A]
Filipin staining fluorescence intensity (SH-SY5Y cells [4]): enhanced
